Laboratory results taken from patent US11584709B2, “Multitarget drug for treating diseases in mammals” (“PHARMENTERPRISES EURASIA” LIMITED LIABILITY COMPANY, priority 2017, dated 2023).

What was measured:
[1] = system: imiquimod-induced psoriasis on the back; test: Mouse model of imiquimod-induced psoriasis on the back; format: in vivo; details: for The gain of the thickness of the back skin to the thickness before the start of the study: 0.3% ointment, M ± m, n = 10
Procedure: Psoriasis was simulated in female balb/c mice by applying Aldar cream (5% imiquimod) on a previously shaved skin back area of 3×4 cm daily 1 time per day for 15 days (J Immunol. 2009 May 1; 182(9):5836-45). Intact animals were applied with vaseline: 120 mg per the shaved back area.
The assessment of the development of pathology was performed on the 10th, 12th, 13th and 15th day before the next application of Aldar cream according to the index: the thickness of the skin fold on the back. The thickness of the skin fold on the back was measured with a Digimatic MK-25 micrometer (Mitutoyo, Japan).

[2] = Stability in blood plasma, pygmy hog; format: in vitro ADME; details: 1 μM, 37° C.
Procedure: (§1) Compound 1 at a concentration of 1 μM was incubated for 24 hours in the blood plasma of human and various animal species (rats, mice, guinea pigs, rabbits, horses, dogs, bull, pygmy hogs) at 37° C. Aliquots were taken at time points of 0, 0.25, 1, 2, 4, 8 and 24 hours. In the case of blood plasma of rabbits and monkeys, Compound 1 was incubated for 4 hours, and aliquots were taken at time points 0, 0.25, 1, 4. After the protein precipitation with acetonitrile, samples were analyzed by HPLC-MS/MS to determine the concentration of Compound 1. Verapamil was used as a stable control.

[3] = target: T1, serotonin receptors 5-HT2B (Homo sapiens, UniProt P41595); test: Activity of serotonin receptors 5-HT2B, CHO cells; format: cell-based; details: antagonist, serotonin agonist (30 nM)
T1 construct: expressed in transfected cells; host or cells: CHO cells
Procedure: Compound 1 was dissolved in DMSO to a concentration of 100 mM; then a stock solution was serially diluted with DMSO. The maximum starting concentration of the substance is 100 μM. The effect was determined at 5 concentrations of the tested compounds, each concentration was studied twice. CHO cells expressing serotonin receptors 5-HT2B were used in the experiment, these cells, after preincubation with a serotonin agonist (30 nM), were incubated with the test compound. The activity of receptors was determined according to the intracellular calcium concentration of phosphatidylinositol by the homogeneous time resolved fluorescence spectroscopy (Br J Pharmacol. 1999 September; 128(1):13-20).

[4] = Pharmacokinetics in blood plasma after oral administration; format: in vivo; details: rats, 3 mg/kg, 24 hours sampling, HPLC-MS/MS, limit of quantitation 1 ng/ml
Procedure: To confirm low systemic availability of Compound 1, the study pharmacokinetics and bioavailability of Compound 1 after oral administration to rats in a dose of 3 mg/kg was conducted. Sampling of blood from animals was performed at specified time points for 24 hours after the drug administration. The content of Compound 1 in plasma samples was analyzed by HPLC-MS/MS, the limit of quantitation was 1 ng/ml.

[5] = Stability in blood plasma, dog; format: in vitro ADME; details: 1 μM, 37° C.
Procedure: as §1

[6] = Stability in blood plasma, human; format: in vitro ADME; details: 1 μM, 37° C.
Procedure: as §1

[7] = target: T2, cannabinoid receptor type 1 (CB1R) (Homo sapiens, UniProt P21554); test: Activity of cannabinoid receptor type 1, CHO cells expressing CB1R; format: cell-based; details: agonist, control CP55940 (30 nM)
T2 construct: expressed in transfected cells; host or cells: CHO cells
Procedure: Compound 1 was dissolved in DMSO to a concentration of 100 mM; then the stock solution was serially diluted with DMSO. The maximum starting concentration of the substance is 100 μM. The effect was determined at 5 concentrations of the tested compounds, each concentration was studied twice. CHO cells expressing CB1R were used in the experiment, these cells were incubated with the test compound. CP55940 (30 nM) compound was used as the control. The activity of receptors was determined by the intracellular calcium concentration by the homogeneous time resolved fluorescence spectroscopy (Mol Pharmacol. 1995 September; 48(3):443-50).

[8] = Chronic (90-day) oral administration, body weight of rabbits; format: in vivo, Chinchilla rabbits; details: for period in which the lag in body weight gain was observed: female rabbits, daily intragastric
Procedure: The effect of 90-day, oral administration of Compound 1 in doses of 1.5 mg/kg, 7.5 mg/kg and 15 mg/kg on the body weight of male and female Chinchilla rabbits was studied.

[9] = target: T3, prokineticin receptor type 2 (PK2) (Homo sapiens, UniProt Q8NFJ6); test: Activity of prokineticin receptors type 2 (PK2), intracellular calcium, HEK-293 cells; format: cell-based; details: antagonist, PK2 agonist (2 nM)
T3 construct: expressed in transfected cells; host or cells: HEK-293 cells
Procedure: Compound 1 was dissolved in DMSO to a concentration of 100 mM; then a stock solution was serially diluted with DMSO. The maximum starting concentration of the substance is 100 μM. The effect was determined at 5 concentrations of the tested compounds, each concentration was studied twice. HEK-293 cells expressing prokinetycin receptors PK2 were used in the experiment, these cells, after preincubation with a PK2 agonist (2 nM), were incubated with the test compound. The activity of receptors was determined according to the intracellular calcium concentration by the fluorescence spectroscopy (Mol Pharmacol. 2005 June; 67(6):2070-6).

[10] = target: T4, tachykinin receptor type 1 (NK1R) (Homo sapiens, UniProt P25103); test: Activity of tachykinin receptor type 1 (NK1R), intracellular calcium, U373 cells; format: cell-based; details: antagonist, [Sar9, Met(O2)11]-SP (1 nM)
T4 construct: endogenous in cells; host or cells: U373 cells
Procedure: Compound 1 dissolved in DMSO to a concentration of 100 mM; then a stock solution was serially diluted with DMSO. The maximum starting concentration of the substance is 100 μM. The effect was determined at 5 concentrations of the tested compounds, each concentration was studied twice. U373 cells expressing NK1R were used in the experiment, said cells, after the preincubation with an [Sar9, Met(O2)11]-SP (1 nM) […], were incubated with Compound 1. The activity of receptors was determined according to the intracellular calcium concentration by the fluorescence spectroscopy (Glia. 1992; 6(2):89-95).

[11] = 90-day oral, 1.5, 7.5 and 15 mg/kg, male and female rabbits

T4 sequence (P25103 whole entry): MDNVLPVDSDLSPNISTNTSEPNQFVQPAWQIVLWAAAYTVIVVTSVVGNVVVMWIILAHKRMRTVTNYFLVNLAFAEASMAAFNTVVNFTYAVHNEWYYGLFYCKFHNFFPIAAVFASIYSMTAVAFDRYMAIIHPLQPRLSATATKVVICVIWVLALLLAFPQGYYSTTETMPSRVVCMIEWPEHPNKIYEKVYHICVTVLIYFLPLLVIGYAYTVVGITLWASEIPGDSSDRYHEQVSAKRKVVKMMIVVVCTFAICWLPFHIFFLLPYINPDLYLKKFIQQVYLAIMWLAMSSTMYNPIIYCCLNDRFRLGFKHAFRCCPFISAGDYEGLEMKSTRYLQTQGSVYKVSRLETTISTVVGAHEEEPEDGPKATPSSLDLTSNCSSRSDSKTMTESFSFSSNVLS
T3 sequence (Q8NFJ6 whole entry): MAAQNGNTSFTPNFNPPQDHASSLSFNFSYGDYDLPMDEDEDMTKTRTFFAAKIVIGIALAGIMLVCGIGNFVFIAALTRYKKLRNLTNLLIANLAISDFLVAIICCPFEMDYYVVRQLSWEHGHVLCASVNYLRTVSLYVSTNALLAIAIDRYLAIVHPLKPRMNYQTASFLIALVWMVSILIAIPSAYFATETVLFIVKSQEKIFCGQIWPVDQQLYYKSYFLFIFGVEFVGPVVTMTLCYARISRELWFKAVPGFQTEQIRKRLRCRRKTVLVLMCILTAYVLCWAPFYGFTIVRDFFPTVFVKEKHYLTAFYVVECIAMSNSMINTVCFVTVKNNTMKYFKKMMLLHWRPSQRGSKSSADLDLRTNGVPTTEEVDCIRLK
T2 sequence (P21554 whole entry): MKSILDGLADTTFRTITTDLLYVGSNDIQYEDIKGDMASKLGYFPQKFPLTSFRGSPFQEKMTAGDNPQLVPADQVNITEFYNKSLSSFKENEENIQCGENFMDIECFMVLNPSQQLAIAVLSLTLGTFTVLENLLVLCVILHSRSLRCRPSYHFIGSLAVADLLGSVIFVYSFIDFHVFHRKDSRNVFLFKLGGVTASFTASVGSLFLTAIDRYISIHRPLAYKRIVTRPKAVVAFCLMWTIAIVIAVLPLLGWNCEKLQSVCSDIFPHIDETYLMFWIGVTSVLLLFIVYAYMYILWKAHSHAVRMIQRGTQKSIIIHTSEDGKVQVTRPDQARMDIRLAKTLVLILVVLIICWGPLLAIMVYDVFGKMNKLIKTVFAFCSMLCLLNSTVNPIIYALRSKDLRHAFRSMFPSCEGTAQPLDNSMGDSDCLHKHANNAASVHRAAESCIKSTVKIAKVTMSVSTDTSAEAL
T1 sequence (P41595 whole entry): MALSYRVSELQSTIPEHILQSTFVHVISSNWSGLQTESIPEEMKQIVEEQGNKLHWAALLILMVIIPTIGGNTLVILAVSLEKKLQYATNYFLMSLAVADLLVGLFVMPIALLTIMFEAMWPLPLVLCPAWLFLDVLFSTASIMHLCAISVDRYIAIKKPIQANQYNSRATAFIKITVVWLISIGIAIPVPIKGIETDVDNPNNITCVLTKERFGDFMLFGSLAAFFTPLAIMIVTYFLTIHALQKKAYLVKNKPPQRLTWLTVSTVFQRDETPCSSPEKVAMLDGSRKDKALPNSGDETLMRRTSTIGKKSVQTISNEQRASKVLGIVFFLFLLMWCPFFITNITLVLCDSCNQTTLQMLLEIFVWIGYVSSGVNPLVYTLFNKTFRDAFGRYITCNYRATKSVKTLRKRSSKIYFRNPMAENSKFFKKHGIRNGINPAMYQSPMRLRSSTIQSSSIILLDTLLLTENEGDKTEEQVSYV

With O=C(Cc1ccc(O)cc1)N[C@@H](Cc1ccccc1)C(=O)OCc1ccccc1 [Compound 1, benzyl (2S)-2-[2-(4-hydroxyphenyl)acetamido]-3-phenylpropanoate] the “The gain of the thickness of the back skin to the thickness before the start of the study” value (“The gain of the thickness … of the study” for short) ([1]; day 10) was 23.1%, the “The gain of the thickness … of the study” value ([1]; day 12) was 19.9% and the “The gain of the thickness … of the study” value ([1]; day 13) was 20.5%. For the same compound, the “The gain of the thickness … of the study” value ([1]; day 15) was 22.4%, the “reduction of the gain of the thickness of the skin fold of the affected skin area” value ([1]; summary of table 2) was 2 times and the “Content, % from the initial, Mean (n = 2)” value (“Content, % from the initial” for short) ([2]; 0 hour) was 100%. The “Content, % from the initial” value ([2]; 0.25 hour) was 92.6%, the “Content, % from the initial” value ([2]; 1 hour) was 61.8% and the “Content, % from the initial” value ([2]; 2 hour) was 35.9%. The “Content, % from the initial” value ([2]; 4 hour (so in the source)) was 2.68%, the “Content, % from the initial” value ([2]; time cell empty (last line)) was 0.15% and the “Content, % from the initial” value ([2]; time cell empty (line after 2 hour)) was 15.9%. For the same compound, the IC50 [3] was 8.9 µM, the “content in blood plasma after oral administration” value [4] was “not detected” and the “Content, % from the initial” value ([5]; 0 hour) was 100%. The “Content, % from the initial” value ([5]; 0.25 hour) was 110%, the “Content, % from the initial” value ([5]; 1 hour) was 79.1% and the “Content, % from the initial” value ([5]; 2 hour) was 80.6%. For the same compound, the “Content, % from the initial” value ([5]; 4 hour) was 67.2%, the “Content, % from the initial” value ([5]; 8 hour) was 54.1% and the “Content, % from the initial” value ([5]; 24 hour) was 33.8%. The “Content, % from the initial” value ([6]; 0 hour) was 100%, the “Content, % from the initial” value ([6]; 0.25 hour) was 85.4% and the “Content, % from the initial” value ([6]; 1 hour) was 70.3%. The “Content, % from the initial” value ([6]; 2 hour) was 50.1%, the “Content, % from the initial” value ([6]; 4 hour) was 32.1% and the “Content, % from the initial” value ([6]; 8 hour) was 16.4%. For the same compound, the “Content, % from the initial” value ([6]; 24 hour) was 0.00%, the IC50 [7] was 3.3 µM and the “general condition, appearance, and mobility” value [8, 11] was “satisfactory and did not differ in the experimental and control groups”. For the same compound, the “weight gain compared with parallel controls” value [8, 11] was “somewhat lagging behind in weight gain”, the “feed and water intake” value ([8]; accompanying the decrease in body weight gain) was “decrease in feed and water intake” and the “period in which the lag in body weight gain was observed” value ([8]; 7.5 mg/kg) was “practically, during the entire period of the drug administration”. For the same compound, the “period in which the lag in body weight gain was observed” value ([8]; 15 mg/kg) was “practically, during the entire period of the drug administration”, the “dynamics of the body weight in the recovery period” value ([8]; recovery period, control versus experimental animals) was “no differences in the dynamics of the body weight” and the IC50 [9] was 5.4 µM. For the same compound, the IC50 [10] was 4.1 µM.
